In PubChem BioAssay AID2811 (Southern Research Specialized Biocontainment Screening …, 2010):
Activity calls are given as the source filed them. The rule behind the calls is not given here.

Test system: S. Typhi WT vs phoP-, polymyxin IC50 shift, OD600 24 h
Test: polymyxin IC50 shift in S. Typhi, Salmonella typhi, set 2 (AID 2811)
Conditions: stronger effect = lower value; for polymyxin IC50 shift difference (WT - phoP-) / polymyxin IC50 shift: at 150 µM
[1] = measured here: phoP- strain shift
[2] = measured here: wild-type strain shift

| Structure (SMILES) | polymyxin IC50 (WT polymyxin IC50 at 150 uM) | polymyxin IC50 shift difference (WT - phoP-) | polymyxin IC50 shift [1] | polymyxin IC50 shift [2] | polymyxin IC50 (phoP- polymyxin IC50 at 150 uM) |
| --- | --- | --- | --- | --- | --- |
| COc1cccc(C2Sc3ccccc3NC3=C2C(=O)c2ccccc23)c1 (centres undefined) | 2.58 µM | -3.66 (inactive) | 4.99 | 1.33 | 11.2 µM |
| O=C(Nc1ccc(Br)cc1)N1CCCN(Cc2ccccc2F)C1 | 7.08 µM | -5.49 (inactive) | 1.55 | -3.93 | 2.62 µM |
| CCn1cc(C(=O)O)c(=O)c2cc(F)c(N3CCN(C(=S)Nc4ccccc4C(F)(F)F)CC3)cc21 | 2.53 µM | -9.73 (inactive) | 9.16 | -0.568 | 2.76 µM |
| O=C1C2=C(Nc3ccccc3SC2c2ccc(I)cc2)c2ccccc21 (centres undefined) | 25.8 µM | -8.99 (inactive) | 1.81 | -7.18 | 0.04 µM |
| COc1ccc(CNC(=S)Nc2ccncc2)cc1 | 5.14 µM | -2.86 (inactive) | -0.186 | -3.04 | 4.55 µM |
| O=C1C2=C(Nc3ccccc3SC2c2ccsc2)c2ccccc21 (centres undefined) | 21.5 µM | -25.9 (inactive) | 6.12 | -19.7 | – |
